Test results: patent US11369666B2, “Treatment of diseases involving mucin” (NewSouth Innovations Pty Limited, priority 2012, dated 2022)
“And” between values parts separate entries of the source, which are not always exact repeats. Identical values can stand only once.

Tests used:
[1] = tested on: mesothelioma cell lines PET and YOU (MUC1); assay: Growth inhibition of MUC1 mesothelioma cell lines (FIG. 9, 10); assay type: cell-based
Source text: The two mesothelioma cell lines PET and YOU (both of which have MUC1) were investigated. These cell lines are different from cancer cells which secrete mucin externally or that have mucin internally in the cell (signet cell).

[2] = tested on: MKN 45 human gastric mucin secreting cancer cell line; assay: In vitro growth, SRB assay, 72 hour culture (FIG. 7a); assay type: cell-based; conditions: MKN 45, SRB assay, agents individually
Method: MKN 45 is a human gastric mucin secreting cancer cell line. The effect of NAC, Br and the combination on in vitro growth (SRB assay, 72 hour culture) was studied.

[3] = tested on: human PMP mucin; assay: Time course for dissolution of human PMP mucin in the laboratory (FIG. 1); assay type: biochemical; conditions: FIG. 1, agent alone
[4] = tested on: PMP tumor/mucin; assay: Breakdown of PMP tumor/mucin specimens from 31 patients in the laboratory; assay type: biochemical, human; conditions: for Residual mucin weight post treatment: 300 μg/ml Br, 5% NAC or both
Method: Specimens of tumor/mucin were taken from the abdomen and then subjected to treatment in the laboratory with 300 μg/ml Br, 5% NAC, or a mixture of both, for 3 hours at 37° C. The weight of mucin tumor was measured before and after treatment.

[5] = tested on: variant of HT29 (5M21); assay: Effect of Br and NAC combination on chemotherapy (FIG. 8); assay type: cell-based
Source text: Chemo resistance of mucin secreting cancers is common. The experiments in FIG. 8 again relate to a variant of HT29 (5M21). A combination of Br and NAC was effective, whereas the individual agents were not effective.

[6] = tested on: MUC 1 cell lines; assay: Br and NAC with chemotherapy drugs in MUC 1 cell lines (FIG. 11, 12); assay type: cell-based; conditions: low doses of Cisplatin, FIG. 11 and 12
Source text: The combination of Br and NAC with chemotherapy drugs in MUC 1 cell lines was investigated (see FIGS. 11 and 12).

CC(=O)N[C@@H](CS)C(=O)O [NAC, N-acetyl cysteine]
growth inhibition of PET and YOU ([1]; 50 mM NAC alone): ineffective
growth inhibition of PET and YOU ([1]; FIG. 9 and 10): no action
effect on in vitro growth [2]: no or little effect
effect on dissolution of human PMP mucin [3]: no effect
effect of treatment on PMP tumor (Table 1) ([4]; agent alone, 31 patients): ineffective
reduction of weight of mucin tumor ([4]; in every case, agent on its own, 300 μg/ml Br or 5% NAC, 3 hours at 37° C.): no (or a very modest) reduction of weight
Residual mucin weight post treatment ([4]; patient P1, mucin type soft, 3 hours at 37° C.): 1.90 g and 1.67 g
Residual mucin weight post treatment ([4]; patient P2, mucin type soft, 3 hours at 37° C.): 1.39 g and 1.53 g
Residual mucin weight post treatment ([4]; patient P3, mucin type soft, 3 hours at 37° C.): 1.80 g and 1.83 g
Residual mucin weight post treatment ([4]; patient P4, mucin type Semi solid, 3 hours at 37° C.): 1.28 g and 1.53 g
Residual mucin weight post treatment ([4]; patient P5, mucin type Hard, 3 hours at 37° C.): 1.69 g and 1.79 g
Residual mucin weight post treatment ([4]; patient P6, mucin type soft, 3 hours at 37° C.): 2.13 g and 2.08 g
Residual mucin weight post treatment ([4]; patient P7, mucin type soft, 3 hours at 37° C.): 2.13 g and 2.08 g
Residual mucin weight post treatment ([4]; patient P8, mucin type soft, 3 hours at 37° C.): 0.95 g and 1.61 g
Residual mucin weight post treatment ([4]; patient P9, mucin type Signet ring carcinoma, 3 hours at 37° C.): 1.42 g and 1.56 g
Residual mucin weight post treatment ([4]; patient P10, mucin type Hard, 3 hours at 37° C.): 1.82 g and 1.73 g
Residual mucin weight post treatment ([4]; patient P12, mucin type Semi Hard, 3 hours at 37° C.): 1.81 g and 1.94 g
Residual mucin weight post treatment ([4]; patient P13, mucin type Hard, 3 hours at 37° C.): 1.73 g and 1.43 g
Residual mucin weight post treatment ([4]; patient P14, mucin type soft, 3 hours at 37° C.): 1.60 g and 1.57 g
Residual mucin weight post treatment ([4]; patient P15, mucin type soft, 3 hours at 37° C.): 1.36 g and 1.37 g
Residual mucin weight post treatment ([4]; patient P16, mucin type soft, 3 hours at 37° C.): 1.69 g and 1.62 g
Residual mucin weight post treatment ([4]; patient P17, Scraped mucin from mucoid tissues, 3 hours at 37° C.): 2.64 g
Residual mucin weight post treatment ([4]; patient P18, mucin type soft, 3 hours at 37° C.): 2.31 g and 2.24 g
Residual mucin weight post treatment ([4]; patient P19, Semi soft Mucin deposits on tissue, 3 hours at 37° C.): 1.79 g and 1.89 g
Residual mucin weight post treatment ([4]; patient P20, mucin type soft, 3 hours at 37° C.): 2.34 g and 2.36 g
Residual mucin weight post treatment ([4]; patient P21, mucin type soft, 3 hours at 37° C.): 2.38 g and 1.74 g
Residual mucin weight post treatment ([4]; patient P22, Adeno-carcinoma, 3 hours at 37° C.): 1.74 g and 1.64 g
Residual mucin weight post treatment ([4]; patient P23, mucin type Semi solid, 3 hours at 37° C.): 1.76 g
Residual mucin weight post treatment ([4]; patient P24, Mucin deposits on tissue, 3 hours at 37° C.): 1.64 g and 1.46 g
Residual mucin weight post treatment ([4]; patient P25, mucin type Hard, 3 hours at 37° C.): 1.49 g and 1.37 g
Residual mucin weight post treatment ([4]; patient P26, mucin type Hard, 3 hours at 37° C.): 1.23 g and 1.26 g
Residual mucin weight post treatment ([4]; patient P27, mucin type soft, 3 hours at 37° C.): 1.92 g and 2.03 g
Residual mucin weight post treatment ([4]; patient P28, mucin type soft, 3 hours at 37° C.): 1.48 g
Residual mucin weight post treatment ([4]; patient P29, mucin type soft, 3 hours at 37° C.): 1.21 g
Residual mucin weight post treatment ([4]; patient P30, mucin type soft, 3 hours at 37° C.): 1.26 g and 1.16 g
Residual mucin weight post treatment ([4]; patient P31, mucin type Hard, 3 hours at 37° C.): 1.56 g and 1.84 g
efficacy against 5M21 [5]: not effective

N.N.[Cl][Pt][Cl] [Cisplatin, cisplatin]
efficacy in MUC 1 cell lines [6]: ineffective
